Data on 12 compounds can be found in patent publication US7119095B2, “Pharmaceutically active compounds and methods of use thereof” (Dana Farber Cancer Institute, priority 2001, dated 2006).

Experiment [1] has as its target T1, T. gondii DHFR (Toxoplasma gondii, UniProt Q07422).
T1 sequence (Q07422 1-610): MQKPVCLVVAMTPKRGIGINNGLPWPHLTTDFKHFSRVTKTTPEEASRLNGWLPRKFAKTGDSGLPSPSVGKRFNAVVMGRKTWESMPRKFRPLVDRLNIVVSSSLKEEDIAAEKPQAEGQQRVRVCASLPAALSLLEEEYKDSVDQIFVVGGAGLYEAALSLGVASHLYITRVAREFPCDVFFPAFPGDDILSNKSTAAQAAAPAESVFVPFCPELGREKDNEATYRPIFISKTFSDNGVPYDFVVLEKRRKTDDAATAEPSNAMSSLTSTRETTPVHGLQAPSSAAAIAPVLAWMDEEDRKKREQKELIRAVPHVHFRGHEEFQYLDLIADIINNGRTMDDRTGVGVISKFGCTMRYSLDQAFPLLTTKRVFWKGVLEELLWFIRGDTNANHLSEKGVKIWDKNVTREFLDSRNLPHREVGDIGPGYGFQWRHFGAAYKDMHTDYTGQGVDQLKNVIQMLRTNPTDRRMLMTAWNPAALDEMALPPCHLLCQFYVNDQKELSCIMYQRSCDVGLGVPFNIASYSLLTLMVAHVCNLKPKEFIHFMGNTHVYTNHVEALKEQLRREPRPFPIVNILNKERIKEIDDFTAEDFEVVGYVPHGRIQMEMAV
The experiment is classed as biochemical. Conditions: compounds 3a-k.

In a further experiment the target is T2, M. avium DHFR (Mycobacterium avium, UniProt O30463).
T2 sequence (O30463 1-181): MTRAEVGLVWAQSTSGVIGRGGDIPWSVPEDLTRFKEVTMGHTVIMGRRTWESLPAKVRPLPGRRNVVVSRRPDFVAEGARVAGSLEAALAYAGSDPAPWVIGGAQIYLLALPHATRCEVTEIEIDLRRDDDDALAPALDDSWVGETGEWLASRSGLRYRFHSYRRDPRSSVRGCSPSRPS
Description: Inhibition of M. avium DHFR (literature assay). The experiment is classed as biochemical. Conditions: compounds 3a-k.

The next experiment deals with T3, rat liver DHFR (Rattus norvegicus, UniProt Q920D2).
T3 sequence (Q920D2 1-187): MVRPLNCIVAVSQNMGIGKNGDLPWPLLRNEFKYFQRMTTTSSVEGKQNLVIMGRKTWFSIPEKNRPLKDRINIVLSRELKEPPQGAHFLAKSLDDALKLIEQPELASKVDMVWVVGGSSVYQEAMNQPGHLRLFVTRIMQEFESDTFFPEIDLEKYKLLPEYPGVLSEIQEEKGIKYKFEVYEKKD
Description: Inhibition of rat liver DHFR (literature assay). The note with it: read-out: IC50 (μM) Rat liver, compounds 3a-k.

Experiment [2] concerns the target T1, T. gondii DHFR. The note with it: reported in the literature; cited from earlier work.
The next experiment has as its target E. coli DHFR (Escherichia coli, UniProt P0ABQ4). The note with it: Kuyper et al., J. Med. Chem. 1985; cited from earlier work.

Usually IC50 stands for the point on the concentration scale where inhibition reaches its midpoint.

In the case of `CCCCCCCCCOc1ccc(OC)c(Cc2cnc(N)nc2N)c1` [Compound 3e, 2,4-Diamino-5-(2-methoxy-5-nonyloxybenzyl)pyrimidine], the IC50 is 32 µM against T. gondii DHFR [1], 32 µM on M. avium DHFR and 86 µM on rat liver DHFR.

`CCCCCCCOc1ccc(OC)c(Cc2cnc(N)nc2N)c1` [Compound 3c, 2,4-Diamino-5-(2-methoxy-5-heptyloxybenzyl)pyrimidine]: the values for the IC50 against T. gondii DHFR [1], against M. avium DHFR and on rat liver DHFR were 5 µM, 0.89 µM and 11 µM, respectively.

With `CCCCCCOc1ccc(OC)c(Cc2cnc(N)nc2N)c1` [Compound 3b, 2,4-Diamino-5-(2-methoxy-5-hexyloxybenzyl)pyrimidine], the IC50 was 9.2 µM on T. gondii DHFR [1], 0.39 µM on M. avium DHFR and 29 µM at rat liver DHFR.

In the case of `COc1ccc(OCCCCCCCCC(=O)O)cc1Cc1cnc(N)nc1N` [Compound 3k], the values for the half-maximal inhibitory concentration (IC50) against T. gondii DHFR [1] and at rat liver DHFR were 0.43 µM and 12 µM, respectively.

For `CCOc1cc(Cc2cnc(N)nc2N)cc(OCC)c1-n1cccc1` [Compound 19, epiroprim], the “selectivity T. gondii versus rat liver DHFR” value on T. gondii DHFR [2] is listed as 155.

With `COc1ccc(OCCCC(=O)O)cc1Cc1cnc(N)nc1N` [Compound 3f], the IC50 against T. gondii DHFR [1] is 0.18 µM; on M. avium DHFR, 0.0048 µM; on rat liver DHFR, 2.6 µM.

On to `COc1ccc(OCCCCCCCC(=O)O)cc1Cc1cnc(N)nc1N` [Compound 3j], for which the 50% inhibitory concentration (IC50) against T. gondii DHFR [1] worked out at 0.36 µM; against M. avium DHFR, 0.13 µM; on rat liver DHFR it was 12 µM.

For `COc1cc(Cc2cnc(N)nc2N)cc(OCCCCCC(=O)O)c1OC` [Compound 18], the “Ki E. coli DHFR” value at E. coli DHFR is given as “highest affinity”.

As to `COc1ccc(OCCCCCC(=O)O)cc1Cc1cnc(N)nc1N` [Compound 3h], the IC50 at T. gondii DHFR [1] was determined as 0.48 µM; on M. avium DHFR it was 0.15 µM; at rat liver DHFR it was 17 µM.

`CCCCCCCCOc1ccc(OC)c(Cc2cnc(N)nc2N)c1` [Compound 3d, 2,4-Diamino-5-(2-methoxy-5-octyloxybenzyl)pyrimidine]: the values for the IC50 at T. gondii DHFR [1] and at rat liver DHFR were 15 µM and 30 µM, respectively.

For the compound `COc1ccc(OCCCCCCC(=O)O)cc1Cc1cnc(N)nc1N` [Compound 3i], the IC50 at M. avium DHFR was 0.19 µM; on rat liver DHFR, 12 µM.

For `CCCCCOc1ccc(OC)c(Cc2cnc(N)nc2N)c1` [Compound 3a, 2,4-Diamino-5-(2-methoxy-5-pentyloxybenzyl)pyrimidine], the results for the IC50 against T. gondii DHFR [1], on M. avium DHFR and at rat liver DHFR were 6.5 µM, 0.31 µM and 44 µM, respectively.
